Test results: the supplement of paper PMC10307832

Columns and labels:
Assay in all cases: relative viability (nuclei count vs DMSO), 5 days (fraction); higher = more cells survive
A-427 = tested on: A-427
Outline: (§1)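 Nuclei were stained with Hoechst during a one-step fixation (final 0.05% Triton X-100, 1% formaldehyde, 1 ug/ml Hoechst) carried out 5 days after dosing, then counted on 4× images. The cells, lung cancer lines in 1536-well plates, had been dosed by pin tool the day after seeding with one drug alone or a fixed anchor-drug dose plus five library-drug doses (not always all listed) in √10 steps. Relative viability is the nuclei count in treated wells divided by that in vehicle wells, and each value is the median of duplicate plates.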

NCI-H460 = tested on: NCI-H460
Outline: as §1

NCI-H522 = tested on: NCI-H522
Outline: as §1

NCI-H1395 = tested on: NCI-H1395
Outline: as §1

COR-L 105 = tested on: COR-L 105
Outline: as §1

NCI-H2009 = tested on: NCI-H2009
Outline: as §1

NCI-H727 = tested on: NCI-H727
Outline: as §1

NCI-H1792 = tested on: NCI-H1792
Outline: as §1

SW 1573 = tested on: SW 1573
Outline: as §1

NCI-H1355 = tested on: NCI-H1355
Outline: as §1

NCI-H1975 = tested on: NCI-H1975
Outline: as §1

SK-LU-1 = tested on: SK-LU-1
Outline: as §1

HCC-827 = tested on: HCC-827
Outline: as §1

HARA = tested on: HARA
Outline: as §1

EMC-BAC-2 = tested on: EMC-BAC-2
Outline: as §1

NCI-H1437 = tested on: NCI-H1437
Outline: as §1

LCLC-103H = tested on: LCLC-103H
Outline: as §1

HOP-62 = tested on: HOP-62
Outline: as §1

CAL-12T = tested on: CAL-12T
Outline: as §1

NCI-H1915 = tested on: NCI-H1915
Outline: as §1

NCI-H23 = tested on: NCI-H23
Outline: as §1

NCI-H1755 = tested on: NCI-H1755
Outline: as §1

NCI-H2228 = tested on: NCI-H2228
Outline: as §1

CC(C)Oc1cc(Nc2nc(N[C@@H](C)c3ccc(F)cn3)ncc2Cl)n[nH]1 [AZ23] + CCNC(=O)c1noc(-c2cc(C(C)C)c(O)cc2O)c1-c1ccc(CN2CCOCC2)cc1 [Luminespib] (partner 0.01 µM)
relative viability (A-427; first compound 0.01 µM): 0.844
relative viability (A-427; first compound 0.03162 µM): 1.03
relative viability (A-427; first compound 0.3162 µM): 1.03
relative viability (NCI-H460; first compound 0.01 µM): 0.0317
relative viability (NCI-H460; first compound 0.03162 µM): 0.0332
relative viability (NCI-H460; first compound 0.3162 µM): 0.0248
relative viability (NCI-H522; first compound 0.01 µM): 1.06
relative viability (NCI-H522; first compound 0.03162 µM): 1.08
relative viability (NCI-H522; first compound 0.3162 µM): 1.15
relative viability (NCI-H1395; first compound 0.03162 µM): 0.658
relative viability (NCI-H1395; first compound 0.3162 µM): 0.771
relative viability (COR-L 105; first compound 0.01 µM): 0.83
relative viability (COR-L 105; first compound 0.03162 µM): 0.872
relative viability (COR-L 105; first compound 0.3162 µM): 0.731
relative viability (NCI-H2009; first compound 0.01 µM): 1.05
relative viability (NCI-H2009; first compound 0.03162 µM): 1.17
relative viability (NCI-H2009; first compound 0.3162 µM): 1.1
relative viability (NCI-H727; first compound 0.01 µM): 0.354
relative viability (NCI-H727; first compound 0.03162 µM): 0.311
relative viability (NCI-H727; first compound 0.3162 µM): 0.454
relative viability (NCI-H1792; first compound 0.01 µM): 0.305
relative viability (NCI-H1792; first compound 0.03162 µM): 0.646
relative viability (NCI-H1792; first compound 0.3162 µM): 0.466
relative viability (SW 1573; first compound 0.01 µM): 0.189
relative viability (SW 1573; first compound 0.03162 µM): 0.164
relative viability (SW 1573; first compound 0.3162 µM): 0.227
relative viability (NCI-H1355; first compound 0.01 µM): 0.671
relative viability (NCI-H1355; first compound 0.03162 µM): 0.768
relative viability (NCI-H1355; first compound 0.3162 µM): 0.715
relative viability (NCI-H1975; first compound 0.01 µM): 0.234
relative viability (NCI-H1975; first compound 0.03162 µM): 0.195
relative viability (NCI-H1975; first compound 0.3162 µM): 0.223
relative viability (SK-LU-1; first compound 0.03162 µM): 0.216
relative viability (SK-LU-1; first compound 0.3162 µM): 0.18
relative viability (HCC-827; first compound 0.01 µM): 0.372
relative viability (HCC-827; first compound 0.03162 µM): 0.74
relative viability (HCC-827; first compound 0.3162 µM): 0.649
relative viability (HARA; first compound 0.03162 µM): 0.822
relative viability (HARA; first compound 0.3162 µM): 1.34
relative viability (EMC-BAC-2; first compound 0.01 µM): 1.11
relative viability (EMC-BAC-2; first compound 0.03162 µM): 1.3
relative viability (EMC-BAC-2; first compound 0.3162 µM): 1.23
relative viability (NCI-H1437; first compound 0.01 µM): 1.29
relative viability (NCI-H1437; first compound 0.03162 µM): 1.25
relative viability (NCI-H1437; first compound 0.3162 µM): 1.2
relative viability (LCLC-103H; first compound 0.01 µM): 1.04
relative viability (LCLC-103H; first compound 0.03162 µM): 0.923
relative viability (LCLC-103H; first compound 0.3162 µM): 1.03
relative viability (HOP-62; first compound 0.01 µM): 0.841
relative viability (HOP-62; first compound 0.03162 µM): 0.981
relative viability (HOP-62; first compound 0.3162 µM): 1.01
relative viability (CAL-12T; first compound 0.03162 µM): 0.364
relative viability (CAL-12T; first compound 0.3162 µM): 0.568
relative viability (NCI-H1915; first compound 0.01 µM): 1.17
relative viability (NCI-H1915; first compound 0.03162 µM): 0.866
relative viability (NCI-H1915; first compound 0.3162 µM): 0.805
relative viability (NCI-H23; first compound 0.03162 µM): 0.229
relative viability (NCI-H23; first compound 0.3162 µM): 0.204
relative viability (NCI-H1755; first compound 0.01 µM): 0.293
relative viability (NCI-H1755; first compound 0.03162 µM): 0.605
relative viability (NCI-H1755; first compound 0.3162 µM): 0.634
relative viability (NCI-H2228; first compound 0.01 µM): 0.179
relative viability (NCI-H2228; first compound 0.03162 µM): 0.141
relative viability (NCI-H2228; first compound 0.3162 µM): 0.0999
